What was measured:
[1] = molecular target: T1, Type-1 angiotensin II receptor (Oryctolagus cuniculus, UniProt P34976); assay: Binding affinity against Angiotensin II type 1 Receptor in rabbit aortic tissue; type: tissue-based, Aorta
T1 sequence (P34976 whole entry): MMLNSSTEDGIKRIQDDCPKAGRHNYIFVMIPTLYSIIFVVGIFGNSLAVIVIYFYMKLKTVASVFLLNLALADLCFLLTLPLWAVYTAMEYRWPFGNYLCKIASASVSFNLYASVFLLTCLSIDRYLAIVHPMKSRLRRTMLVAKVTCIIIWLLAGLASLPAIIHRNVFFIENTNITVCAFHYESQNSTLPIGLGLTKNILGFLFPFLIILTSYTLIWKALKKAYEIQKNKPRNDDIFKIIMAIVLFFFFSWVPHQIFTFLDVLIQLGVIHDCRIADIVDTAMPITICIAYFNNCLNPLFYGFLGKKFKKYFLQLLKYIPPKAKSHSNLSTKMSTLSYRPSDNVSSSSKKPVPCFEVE

[2] = Tested for Lipophilicity of the compound; type: physicochemical; conditions: octanol/water
[3] = molecular target: T1, Type-1 angiotensin II receptor; assay: Ability to displace [125I]Sar1-Ile8-AII from Angiotensin II receptor, type 1 in rabbit aorta in presence of 0.2% bovine serum albumin (BSA) was determined in vitro; type: tissue-based

IC50 [1] [nM]	Lipophilicity [2]	IC50 [3] [nM]	Structure (SMILES)
370	–	–	CCCCc1nc2cc(C)ccc2c(=O)n1Cc1ccc(-c2ccccc2C(=O)O)cc1
5	-0.02	–	CCCCc1nc2ccc(OC)cc2c(=O)n1Cc1ccc(-c2ccccc2-c2nnn[nH]2)cc1
28	-0.28	–	CCCCc1nc2ccc([N+](=O)[O-])cc2c(=O)n1Cc1ccc(-c2ccccc2-c2nn[nH]n2)cc1
1400	–	–	CCCCc1nc2c(C)cccc2c(=O)n1Cc1ccc(-c2ccccc2C(=O)O)cc1
13	–	–	CCCCc1nc2cc(OC)c(OC)cc2c(=O)n1Cc1ccc(-c2ccccc2-c2nnn[nH]2)cc1
1.3	-1.23	–	CCCCc1nc2ccc(N)cc2c(=O)n1Cc1ccc(-c2ccccc2-c2nnn[nH]2)cc1
–	0.88	12	CCCCc1nc2ccc(C(F)(F)F)cc2c(=O)n1Cc1ccc(-c2ccccc2-c2nn[nH]n2)cc1
26	0.14	–	CCCCc1nc2ccc(F)cc2c(=O)n1Cc1ccc(-c2ccccc2-c2nn[nH]n2)cc1
370	–	–	CCCCc1nc2cccc(C)c2c(=O)n1Cc1ccc(-c2ccccc2C(=O)O)cc1
15	–	–	CCCCc1nc2cc(Cl)ccc2c(=O)n1Cc1ccc(-c2ccccc2-c2nn[nH]n2)cc1
200	–	–	CCCCc1nc2ccccc2c(=O)n1Cc1ccc(-c2ccccc2C(=O)O)cc1
380	–	–	CCCCc1nc2cc3ccccc3cc2c(=O)n1Cc1ccc(-c2ccccc2C(=O)O)cc1
92	–	–	CCCCc1nc2ccc(C)cc2c(=O)n1Cc1ccc(-c2ccccc2C(=O)O)cc1
9	-0.97	–	CCCCc1nc2ccc(NC(C)=O)cc2c(=O)n1Cc1ccc(-c2ccccc2-c2nnn[nH]2)cc1
10	–	–	CCCc1nc2ccc(C)cc2c(=O)n1Cc1ccc(-c2ccccc2-c2nn[nH]n2)cc1
10	0	–	CCCCc1nc2ccccc2c(=O)n1Cc1ccc(-c2ccccc2-c2nn[nH]n2)cc1
2	–	–	CCCCC(=O)Nc1ccc2nc(CCCC)n(Cc3ccc(-c4ccccc4-c4nnn[nH]4)cc3)c(=O)c2c1
10	–	–	CCCCc1nc2cccc(F)c2c(=O)n1Cc1ccc(-c2ccccc2-c2nn[nH]n2)cc1
6.4	–	–	CCCCCc1nc2ccc(C)cc2c(=O)n1Cc1ccc(-c2ccccc2-c2nnn[nH]2)cc1
–	1.12	12	CCCCc1nc2ccc(I)cc2c(=O)n1Cc1ccc(-c2ccccc2-c2nnn[nH]2)cc1
> 100	–	–	CCc1nc2ccc(C)cc2c(=O)n1Cc1ccc(-c2ccccc2-c2nn[nH]n2)cc1
4	0.56	–	CCCCc1nc2ccc(C)cc2c(=O)n1Cc1ccc(-c2ccccc2-c2nnn[nH]2)cc1
29	0.71	–	CCCCc1nc2ccc(Cl)cc2c(=O)n1Cc1ccc(-c2ccccc2-c2nn[nH]n2)cc1

— ChEMBL document CHEMBL1126508, “Quinazolinones 1: design and synthesis of potent quinazolinone- containing AT1-selective angiotensin-II receptor antagonists” (Bioorg Med Chem Lett, 1993)
